The target in assay [1] is T1, S1P1 receptor (Homo sapiens, UniProt P21453).
T1 construct: expressed in transfected cells; membrane preparation
In words: 35S-GTPγS binding assay using membrane preparation of CHO cell stably expressing S1P1 receptor. The class given is biochemical. The note with it: agonist activity. On the procedure:
^35s-GTPγS binding assay using membrane preparation of CHO cell stably expressing S1P1 receptor
A G protein-GTPγS binding test associated with a ligand was performed by using a membrane preparation which was obtained from a CHO cell which stably overexpressed S1P1 receptor. In a 96 well-micro-titer dish, the produced membrane protein and a compound which was diluted with a solvent such as DMSO or sphingosine-1-phosphate in various concentrations was incubated in a solution containing 20 mM of Tris-Cl (pH7.5), 100 mM of NaCl, 10 mM of MgCl2, 5μM of GDP, 0.1% of BSA, and […] of ^35s-GTPγS (specific radioactivity, 1250 Ci mmol). The binding was performed for 1 or more hours at room temperature, and the membrane was harvested on a GF/B filter plate by using a Millipore's MultiScreen Separation System to end the binding. After the filter plate was dried for 30 or more minutes, 25 μL of MicroScint-20 was added to each well, and the binding was measured by using the TopCount.
For the agonist activity of compound, the value of a well which a solvent was added to was set to a control value and compared with an increment of an evaluation compound-added well, so that the increment of each concentration of the compound was obtained. EC50 value was calculated under the definition that the value is an agonist concentration required to provide 50% of the maximum increment thereof. […]
Background: GTPγS resists hydrolysis and so accumulates on activated G proteins.

Assay [2] has as its target T2, S1P3 receptor (Homo sapiens, UniProt Q99500).
T2 construct: expressed in transfected cells; host or cells: CHO cells, transient transfection; membrane protein
In words: 35S-GTPγS binding assay using membrane preparation of CHO cell temporarily expressing S1P3 receptor. The class given is biochemical. The note with it: agonist activity, membrane of CHO cell temporarily transfected with S1P3 gene. The protocol:
^35s-GTPγS binding assay using membrane preparation of CHO cell of temporarily expressing S1P3 receptor
A GTPγS binding test associated with S1P3 receptor was performed by using the same method as that of the GTPγS binding test associated with S1P1 receptor. In the test, a membrane protein which was produced from a CHO cell in which S1P3 gene was temporarily transfected was used.
For the agonist activity of compound, the value of a well which a solvent was added to was set to a control value and compared with an increment of an evaluation compound-added well, so that the increment of each concentration of the compound was obtained. EC50 value was calculated under the definition that the value is an agonist concentration required to provide 50% of the highest increment thereof.

The test system of assay [3] is peripheral lymphocytes. In words: Evaluation of reduction in peripheral blood lymphocyte count. Format: in vivo. Particulars: 3 h; rat, oral; dose required to reduce the lymphocyte count by 50% in three hours from the administration. On the procedure: Evaluation of Reduction in Peripheral Blood Lymphocyte count
A compound or a solvent was orally administered to a rat. When 3, 6, 24, 48, and 72 hours had elapsed since the administration of compound, blood was withdrawn from its tail vein. All the blood samples were analyzed hematologically. The total count of peripheral lymphocytes was measured by using an auto-analyzer (Sysmex 2000Xi). The effect of each compound to the total count of peripheral lymphocytes was evaluated by using three or more rats in one group. The reduction in lymphocyte count caused by the administration of compound was compared with that caused by the administration of solvent to a rat group. Namely, the average lymphocyte count of a solvent-administered group was set to 100%, and a control value (%) was calculated from the average lymphocyte count of a compound-administered group. An ED50 value, that is, a dosed amount of the compound required to reduce the lymphocyte count by 50% in three hours from the administration was calculated from the dosed amount of the compound and the control value (%).

For assay [4], the system named is adjuvant arthritis rat. Description: Adjuvant-induced arthritis model. The note with it: 504 h, Lewis female rats, oral once daily for 21 days, dose required to suppress swelling of hind paw by 50% on the 21-th day. Format: in vivo. On the procedure: Adjuvant-Induced Arthritis Model
7-weeks old Lewis female rats are used for evaluation. The volume of a hind paw of a rat was measured. As an adjuvant, 500 μg/100 μL of M. tuberclulosis H37 RA (manufactured by Difco) is subcutaneously injected into the plantar of the left hind paw, so that an adjuvant arthritis rat is produced. A compound which is suspended in a 1% methylcellulose solution is forcibly oral-administered to the stomach by using an oral sonde one-time everyday for 21 days from the injection date of the adjuvant. The evaluation of arthritis is performed by measuring the volume of paw of each tested subject by using PLETHYSMOMETER (manufactured by UGO BASILE) and comparing the measured deta of a compound-administered group with those of a solvent-administered group. Swelling of the plantar portion of hind leg of the solvent-administered group was set to 100%, and a control value (%) was calculated from the swelling of the compound-administered group. An ED50 value, that is, a dosed amount of the compound required to suppress the swelling of the plantar portion of hind paw on the 21-th day from the administration date of the adjuvant by 50% was calculated from the dosed amount of the compound and the control value (%).

Broadly, the pEC50 is the EC50 on a negative log10 scale, so that one unit is a factor of ten. As a reminder, the ED50 is the dose that gives a 50% effect, or the effect in half of the subjects.

pEC50: −log10 of the molar value.

T1 sequence (P21453 whole entry): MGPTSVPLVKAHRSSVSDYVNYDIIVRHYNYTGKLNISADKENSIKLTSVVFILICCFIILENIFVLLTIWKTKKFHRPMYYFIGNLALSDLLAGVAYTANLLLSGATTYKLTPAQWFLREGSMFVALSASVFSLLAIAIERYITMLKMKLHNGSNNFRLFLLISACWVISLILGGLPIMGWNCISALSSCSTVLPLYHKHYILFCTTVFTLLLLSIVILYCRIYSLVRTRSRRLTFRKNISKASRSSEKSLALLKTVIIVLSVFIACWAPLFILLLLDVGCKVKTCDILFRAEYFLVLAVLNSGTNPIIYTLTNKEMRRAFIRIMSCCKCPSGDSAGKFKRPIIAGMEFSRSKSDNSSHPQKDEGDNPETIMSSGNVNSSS
T2 sequence (Q99500 whole entry): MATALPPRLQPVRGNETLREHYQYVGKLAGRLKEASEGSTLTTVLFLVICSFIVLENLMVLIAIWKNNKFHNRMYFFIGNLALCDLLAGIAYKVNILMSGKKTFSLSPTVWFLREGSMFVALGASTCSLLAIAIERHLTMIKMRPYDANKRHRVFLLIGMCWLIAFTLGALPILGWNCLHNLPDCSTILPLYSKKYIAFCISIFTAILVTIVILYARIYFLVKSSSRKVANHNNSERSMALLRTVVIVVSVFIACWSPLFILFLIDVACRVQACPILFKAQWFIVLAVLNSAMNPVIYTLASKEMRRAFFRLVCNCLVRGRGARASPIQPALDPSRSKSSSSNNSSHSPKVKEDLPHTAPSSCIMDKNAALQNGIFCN

With `O=C(O)[C@H]1CCC[C@H](NCc2ccc(OCc3cc(-c4ccccc4)c(C(F)(F)F)s3)cc2)C1` [Example 4], the results for the negative-log EC50 (pEC50) in assay [1] and in assay [2] were 7.47 and 6.06, respectively.

In turn, `O=C(O)C1CC(NCc2ccc(OCc3cc(-c4ccccc4)c(C(F)(F)F)s3)cc2)C1` (stereo not shown) [Example 6] came in with a 50% effective dose (ED50) in assay [3] of 5.1 mg/kg.

As for `O=C(O)[C@H]1CC[C@H](NCc2ccc(OCc3cc(-c4ccccc4)c(C(F)(F)F)s3)cc2)C1` [Example 25], the negative logarithm of the EC50 (pEC50) in assay [1] was 8.40; in assay [2], 6.93.

`CC(C)Cc1ccc(-c2nc(-c3ccc(CNCCC(=O)O)cc3)no2)cc1.Cl` [Example 40] had a pEC50 in assay [1] of 9.30. In assay [3], this compound came in with a 50% effective dose (ED50) of 0.71 mg/kg.

For the compound `CC(C)COc1ccc(-c2nc(-c3ccc(CNCCC(=O)O)cc3)no2)cc1C(F)(F)F.Cl` [Example 46], the pEC50 in assay [1] was 9.30. For the same compound, in assay [3], it took a dose of 2.1 mg/kg to reach the 50% effect level (ED50).

In turn, `Cc1cc(-c2nc(-c3ccc(CNCCC(=O)O)cc3)no2)ccc1-c1ccccc1.Cl` [Example 54] had a pEC50 in assay [1] of 9.47. The results for the ED50 in assay [4] and in assay [3] were 0.33 mg/kg and 0.44 mg/kg, respectively.

As for `Cl.O=C(O)CCNCc1ccc(-c2noc(C3CCC(c4ccccc4)CC3)n2)cc1` (stereo not shown) [Example 61], in assay [1], the pEC50 was 8.82. Besides, in assay [3], the 50% effective dose (ED50) is 0.53 mg/kg.

For `Cc1cc(-c2nc(-c3ccc(CNCCC(=O)O)cc3)no2)ccc1-c1ccccc1C#N.Cl` [Example 78], the pEC50 in assay [1] was 9.59. In addition, the ED50 in assay [3] was 0.37 mg/kg.

As to `Cl.N#Cc1ccccc1-c1ccc(-c2nc(-c3ccc(CNCCC(=O)O)cc3)no2)cc1C#N` [Example 90], the pEC50 in assay [1] is 8.85. Besides, the ED50 in assay [3] amounted to 4.1 mg/kg.

In the case of `Cl.N#Cc1ccccc1-c1ccc(-c2nc(-c3ccc(CNCCC(=O)O)cc3)no2)cc1C(F)(F)F` [Example 93], the pEC50 in assay [1] was 9.32. Besides, the ED50 in assay [3] is 0.64 mg/kg.

In turn, `Cl.O=C(O)CCNCc1ccc(-c2noc(-c3ccc(-c4ccccc4)c(C(F)(F)F)c3)n2)cc1` [Example 94] showed a negative logarithm of the EC50 (pEC50) in assay [1] of 9.60. The 50% effective dose (ED50) in assay [3] was found to be 0.087 mg/kg.

In assay [1], `Cl.O=C(O)CCNCc1ccc(-c2noc(-c3ccc(CCC(F)(F)F)cc3)n2)cc1` [Example 104] gave a pEC50 of 8.68. Moreover, the 50% effective dose (ED50) in assay [3] was 0.7 mg/kg.

For `Cl.O=C(O)CCNCc1ccc(-c2noc(-c3ccc(-c4ccccc4)c(OC(F)(F)F)c3)n2)cc1` [Example 105], the negative-log EC50 (pEC50) in assay [1] was 9.31. This compound registered a 50% effective dose (ED50) in assay [3] of 0.084 mg/kg.

Take `Cl.N#Cc1ccccc1-c1ccc(-c2nc(-c3ccc(CNCCC(=O)O)cc3)no2)cc1OC(F)(F)F` [Example 106]: the pEC50 in assay [1] was 8.92. Moreover, the ED50 in assay [3] stood at 0.5 mg/kg.

`Cc1cc(-c2nc(-c3ccc(CNCCC(=O)O)cc3)no2)ccc1-c1ccoc1.Cl` [Example 117]: the negative logarithm of the EC50 (pEC50) in assay [1] was 10.15. Besides, the 50% effective dose (ED50) in assay [3] is 0.88 mg/kg.

In assay [1], `CC(C)Oc1ccc(-c2nc(-c3ccc(CN[C@H]4C[C@H](C(=O)O)C4)cc3)no2)cc1C(F)(F)F` [Example 135] had a pEC50 of 9.14. In addition, the median effective dose (ED50) in assay [4] is 0.21 mg/kg; in assay [3], 0.16 mg/kg.

Regarding `Cc1cc(CNCCC(=O)O)ccc1-c1noc(-c2ccc(-c3ccccc3C#N)c(C)c2)n1` [Example 145], the negative logarithm of the EC50 (pEC50) in assay [1] is 9.70. Moreover, the ED50 in assay [3] was 0.46 mg/kg.

In assay [1], `Cc1cc(CNC2CC(C(=O)O)C2)ccc1-c1noc(-c2ccc(-c3ccccc3C#N)c(C)c2)n1` (stereo not shown) [Example 147] showed a pEC50 of 8.62. Moreover, the 50% effect level in assay [3] (ED50) was put at a dose of 0.72 mg/kg.

`COc1cc(OCc2cc(-c3ccccc3)c(C(F)(F)F)s2)ccc1CNCCC(=O)O` [Example 150] had a pEC50 in assay [1] of 7.43.

For the compound `O=C(O)CCNCc1ccc(OCc2cc(-c3ccccc3)c(C(F)(F)F)s2)c(Br)c1` [Example 151], the negative logarithm of the EC50 (pEC50) in assay [1] was 7.57.

In assay [1], `O=C(O)CCNCc1ccc(OCc2cc(-c3ccccc3)c(C(F)(F)F)s2)c(F)c1` [Example 152] had a pEC50 of 8.19.

The values are drawn from US20080200535A1, “Amine Compounds” (Asahi Kasei Pharma Corporation, priority 2006, published 2008).
